Entries after “also recorded” stand apart in the source; their conditions may differ.

Experimental findings from US11807852B2, “Compositions and methods for reactivating latent immunodeficiency virus” (The J. David Gladstone Institutes, a testamentary trust …, priority 2014, dated 2023) are described below.

The subject of data set [1] is A2 J-Lat cells, A72 J-Lat cells, and primary CD4+ T cells. Description: ApoTox-Glo Triplex Assay: viability, cytotoxicity, caspase-3/7. In kind it is cell-based. The conditions noted are these: A2, A72 J-Lat cells and primary CD4+ T cells from 2 blood donors. On the procedure:
FIGS. 22A-D provide data showing the viability, cytotoxicity and apoptosis of cells treated with SMYD2 inhibitor X2. ApoTox-Glo™ Triplex Assays (Promega) were performed in AZ391-treated A2 J-Lat cells (A), A72 J-Lat cells (B), and primary CD4^+ T cells from 2 independent blood donors (C) and (D). […] All measurements were repeated at least three times and an average of one experiment of three technical replicates (±SD) is shown.

For data set [2], the system named is latent HIV-1 in primary CD4+ T cells. Description: Primary T-cell model of HIV latency (Greene model), NL4-3-Luc luciferase. In kind it is cell-based. On the procedure: Peripheral blood mononuclear cells (PBMC) were isolated by Ficoll-Hypaque density gradient centrifugation of buffy coats from HIV-seronegative donors (Blood Centers of the Pacific). PBMCs were immediately processed to isolate CD4^+ T cells. Total CD4^+ T cells were isolated by negative selection, according to manufacturer's protocol, with the EasySep CD4^+ T-cell Enrichment Kit (Stem Cell Technologies). Isolated CD4^+ T cells were cultured in RPMI as described above at a concentration of 1×10^6 cells/ml for 24 h before HIV infection.
CD4^+ T cells were counted, collected as pellets by centrifugation at 1500 rpm for 5 min at room temperature, and resuspended in the appropriate volume of concentrated viral NL4-3-Luc supernatant. Typically, 50-200 ng of p24Gag per 4×10^5 CD4^+ T cells were used. Spinoculations with NL4-3-Luc virus were performed in 96-well V-bottom plates with up to […] HLAC or CD4 T cells per well. All spinoculations were performed in volumes of 200 μl or less. Cells and virus were centrifuged at 2000 rpm for 1.5-2 h at room temperature. After spinoculation, cells were pooled and cultured at a concentration of 1×10^6 cells/ml in RPMI 1640 containing 10% FBS and supplemented with 5 μM saquinavir for 3 days to prevent residual spreading infection. Saquinavir was purchased from Sigma.
For reactivation of latent HIV-1 provirus, cells were counted and collected as pellets by centrifugation at 1500 rpm for 10 min. Cells were then plated in 96-well U-bottom plates at concentrations of 1×10^6/200 μl in the presence of the indicated activator. Unless otherwise indicated, cells were cultured either in medium alone or stimulated with 5 μg/ml phytohemagglutinin (PHA) (Sigma), 10 ng/ml TNF-α, anti-CD3+anti-CD28 beads at a ratio of 1:1. SAHA, JQ1 and X2 were tested at the indicated concentrations. Cells were harvested 48 hr after stimulation, washed one time with PBS, and lysed in 60 μl of Cell Lysis Buffer (Promega). After 15 min of lysis, the luciferase activity in cell extracts was quantified with a BD Monolight Luminometer after mixing 20 μl of lysate with 100 μl of substrate (Luciferase Assay System-Promega). Relative light units were normalized to protein content determined by BCA assay (Pierce). Cell survival rates were measured by flow cytometry immediately before lysis.
Since X2 activated HIV from latency in A2 and A72 cell lines, this compound was tested in a primary T-cell model of latency (Lassen, Greene). In this model, CD4+ T cells were infected in a single-round infection with HIV clone NL4-3-Luc to generate a latent infection in vitro. To reactivate latent HIV-1, cells were treated with the indicated compounds or a combination of PHA/IL-2 as a control for maximal activation. X2 in combination with JQ1 reactivated latent HIV-1 at 8-25% of the rate achieved by costimulation with PHA/IL-2 (FIG. 9). X2 in combination with Ingenol 3,20-dibenzoate reactivated latent HIV-1 at 30-85% of the rate achieved by costimulation with PHA/IL-2 (FIG. 10).

Regarding `N#Cc1cc(C(=O)NCCCN2CCCC2)cc(-c2ccccc2N2CCN(CCc3c[nH]c4ccccc34)CC2)c1` [AZ391], the “viability, cytotoxicity and caspase-3/7 activity” value in data set [1] was “reduced cell viability and increased cytotoxicity and caspase-3/7 activity at concentrations above 5 μM; also recorded: did not reduce viability nor increase cytotoxicity and caspase-3/7 activity at concentrations lower than 5 μM”. Also, the entries for the “reactivation of latent HIV-1 as % of the rate achieved by costimulation with PHA/IL-2” value in data set [2] (in combination with Ingenol 3,20-dibenzoate) and in data set [2] (in combination with JQ1) were 30-85% and 8-25%, respectively. Moreover, the “reactivation of latent HIV-1, synergy” value in data set [2] (with JQ1) and in data set [2] (with ingenol 3,20-dibenzoate) was “synergy” throughout. In data set [2] (with SAHA, listed as X2), the “reactivation of latent HIV-1, combination effect” value is “modest activation; also recorded: minimal synergy”.
